Reference: US11964973B2 (priority 2019, dated 2024)
Where two headings read alike, the source gives them in different places.

How the values were obtained:
Human DGKα(9-727) = Human DGKα(9-727) (Homo sapiens (Human), UniProt P23743); assay: biochemical; conditions: liposome (LIPGLO) assay; Table A; read-out: DGKα LIPGLO IC50
full length human DGKζ = full length human DGKζ (Homo sapiens (Human), UniProt Q13574); assay: In vitro DGK inhibition assay, Method B (DGKζ LIPGLO, extruded liposomes); type: biochemical
[1] = system: human venous whole blood, CD8 positive population (pERK); assay: DGK human whole blood pERK assay; type: cell-based; conditions: top concentration 20 μM
In short: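 Read-out is the pERK-positive fraction of CD8+ cells measured by flow cytometry. Donor venous blood (heparin) saw compound for one hour at 37° C before a 15-minute anti-CD3 challenge (1 μg/mL final) with cross-linking anti-mouse IgG.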

[2] = liposome (LIPGLO) assay, read-out: DGKζ LIPGLO IC50
[3] = human whole blood, CD8 positive population, anti-CD3 stimulation, read-out: DGK HWB (human whole blood pERK)
[4] = read-out: DGK HWB (human whole blood pERK), human whole blood, CD8 positive population, anti-CD3 stimulation
[5] = Homo sapiens, CD8 positive, human whole blood, CD8 positive population, anti-CD3 stimulation, read-out: DGK HWB (human whole blood pERK)

full length human DGKζ, sequence (Q13574 whole entry, looked up): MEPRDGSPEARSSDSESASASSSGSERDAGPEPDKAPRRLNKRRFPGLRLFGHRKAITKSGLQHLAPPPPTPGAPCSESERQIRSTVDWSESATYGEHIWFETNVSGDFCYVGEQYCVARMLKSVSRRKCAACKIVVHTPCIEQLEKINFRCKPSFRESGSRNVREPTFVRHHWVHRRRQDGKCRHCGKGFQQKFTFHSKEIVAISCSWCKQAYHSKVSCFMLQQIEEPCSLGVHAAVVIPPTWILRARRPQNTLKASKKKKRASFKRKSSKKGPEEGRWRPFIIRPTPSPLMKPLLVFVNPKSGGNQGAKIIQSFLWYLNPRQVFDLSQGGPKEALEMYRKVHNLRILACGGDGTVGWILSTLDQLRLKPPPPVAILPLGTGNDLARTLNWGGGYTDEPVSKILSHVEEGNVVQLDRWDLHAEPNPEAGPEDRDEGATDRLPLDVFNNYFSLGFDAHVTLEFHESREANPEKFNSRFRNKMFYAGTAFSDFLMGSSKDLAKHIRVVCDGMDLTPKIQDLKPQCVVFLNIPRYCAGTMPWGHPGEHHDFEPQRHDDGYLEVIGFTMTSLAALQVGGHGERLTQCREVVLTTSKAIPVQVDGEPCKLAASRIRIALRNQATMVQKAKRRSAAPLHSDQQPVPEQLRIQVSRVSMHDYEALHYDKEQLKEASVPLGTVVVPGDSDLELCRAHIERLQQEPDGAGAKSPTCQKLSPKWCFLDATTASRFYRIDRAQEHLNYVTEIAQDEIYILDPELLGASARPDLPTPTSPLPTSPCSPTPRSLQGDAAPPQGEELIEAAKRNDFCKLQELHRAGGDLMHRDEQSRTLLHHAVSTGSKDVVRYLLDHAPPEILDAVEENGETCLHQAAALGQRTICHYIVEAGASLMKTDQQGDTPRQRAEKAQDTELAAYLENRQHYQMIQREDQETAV
Human DGKα(9-727), sequence (P23743 whole entry, looked up): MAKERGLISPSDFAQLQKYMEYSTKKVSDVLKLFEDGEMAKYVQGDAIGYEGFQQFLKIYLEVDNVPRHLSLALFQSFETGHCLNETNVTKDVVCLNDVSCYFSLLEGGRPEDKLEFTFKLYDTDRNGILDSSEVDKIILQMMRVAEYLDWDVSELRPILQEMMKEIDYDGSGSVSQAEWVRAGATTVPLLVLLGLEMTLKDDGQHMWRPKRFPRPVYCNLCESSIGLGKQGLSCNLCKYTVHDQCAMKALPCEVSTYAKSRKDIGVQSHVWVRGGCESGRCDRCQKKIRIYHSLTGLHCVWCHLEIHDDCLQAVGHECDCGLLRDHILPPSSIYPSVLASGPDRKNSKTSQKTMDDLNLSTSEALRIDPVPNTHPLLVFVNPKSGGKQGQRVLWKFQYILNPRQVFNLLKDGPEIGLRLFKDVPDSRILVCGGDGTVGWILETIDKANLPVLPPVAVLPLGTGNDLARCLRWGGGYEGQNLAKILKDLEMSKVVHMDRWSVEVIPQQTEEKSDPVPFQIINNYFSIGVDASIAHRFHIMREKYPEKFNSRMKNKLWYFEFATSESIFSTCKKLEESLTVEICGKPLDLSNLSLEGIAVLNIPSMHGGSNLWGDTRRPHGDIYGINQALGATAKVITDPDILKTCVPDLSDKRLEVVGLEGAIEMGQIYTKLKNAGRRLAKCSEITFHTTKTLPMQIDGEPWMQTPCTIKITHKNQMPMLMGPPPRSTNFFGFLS

Structure (SMILES) | IC50 (Human DGKα(9-727)) | IC50 (full length human DGKζ; [2]) | EC50 [1, 3] | EC50 [1, 4] | EC50 [1, 5] | IC50 (full length human DGKζ) | EC50 ([1]; Homo sapiens, CD8 positive, read-out: DGK HWB (human whole blood pERK), human whole blood, CD8 positive population, anti-CD3 stimulation)
CCO[C@H]1CN(c2cc(=O)n(C)c3ccc(C#N)nc23)CC[C@@H]1Oc1cnc(OC(C)C)cn1 [Example 377, 8-((3S,4S)-3-ethoxy-4-((5-isopropoxypyrazin-2-yl)oxy)piperidin-1-yl)-5-methyl-6-oxo-5,6-dihydro-1,5-naphthyridine-2-carbonitrile] | 0.13 µM | 0.075 µM | 0.45 µM |  |  |  | 
CCO[C@H]1CN(c2cc(=O)n(C)c3ccc(C#N)nc23)CC[C@@H]1Oc1ncc(OC(C)C)cn1 [Example 379, 8-((3S,4S)-3-ethoxy-4-((5-isopropoxypyrimidin-2-yl)oxy)piperidin-1-yl)-5-methyl-6-oxo-5,6-dihydro-1,5-naphthyridine-2-carbonitrile] | 0.58 µM | 3.1 µM | 7 µM |  |  |  | 
Cn1c(=O)cc(N2CC[C@@H](Oc3cccc(C(F)(F)F)c3)[C@H](OCCN3CCOCC3)C2)c2nc(C#N)ccc21 [Example 392, 5-methyl-8-((3R,4R)-3-(2-morpholinoethoxy)-4-(3-(trifluoromethyl)phenoxy)piperidin-1-yl)-6-oxo-5,6-dihydro-1,5-naphthyridine-2-carbonitrile] | 42 µM | 24 µM |  | 13 µM |  |  | 
CCO[C@H]1CN(c2cc(=O)n(C)c3ccc(C#N)nc23)CC[C@@H]1OCc1cccc(C(F)(F)F)c1 (single isomer, unassigned) [Example 382] | 17 µM | 130 µM |  |  | 20 µM |  | 
CCO[C@H]1CN(c2cc(=O)n(C)c3ccc(C#N)nc23)CC[C@@H]1Oc1ncc(OC(C)C)cn1 [Example 380, 8-((3S,4S)-3-ethoxy-4-((5-isopropoxypyrimidin-2-yl)oxy)piperidin-1-yl)-5-methyl-6-oxo-5,6-dihydro-1,5-naphthyridine-2-carbonitrile] | 1.3 µM | 14 µM | 20 µM |  |  |  | 
CCO[C@@H]1CN(c2nc(=O)n(C)c3ccc(C#N)nc23)CC[C@H]1Oc1ccc(OC(C)C)cn1 (relative stereo) [Example 401, trans-4-(3-Ethoxy-4-((5-isopropoxypyridin-2-yl)oxy)piperidin-1-yl)-1-methyl-2-oxo-1,2-dihydropyrido[3,2-d]pyrimidine-6-carbonitrile] | 0.83 µM | 0.39 µM | 2.3 µM |  |  |  | 
C[C@@H]1CN(c2cc(=O)n(C)c3ccc(C#N)nc23)[C@@H](C)CC1N(C)C(=O)c1ccc(F)cc1 (single isomer, unassigned) [Example 283B] | 42 µM |  |  |  |  | 42 µM | 
CCO[C@@H]1CN(c2nc(=O)n(C)c3ccc(C#N)nc23)CC[C@H]1Oc1ccc(OC(C)C)cn1 (relative stereo) [Example 400, trans-4-(3-Ethoxy-4-((5-isopropoxypyridin-2-yl)oxy)piperidin-1-yl)-1-methyl-2-oxo-1,2-dihydropyrido[3,2-d]pyrimidine-6-carbonitrile] | 6.1 µM | 0.7 µM | 9.2 µM |  |  |  | 
CCO[C@H]1CN(c2nc(=O)n(C)c3ccc(C#N)nc23)CC[C@@H]1Oc1ccccc1 (relative stereo) [Example 402, trans-4-(3-Ethoxy-4-phenoxypiperidin-1-yl)-1-methyl-2-oxo-1,2-dihydropyrido[3,2-d] pyrimidine-6-carbonitrile] | 2.1 µM | 0.9 µM |  | 2.8 µM |  |  | 
CC(C)O[C@@H]1CN(c2cc(=O)n(C)c3ccc(C#N)nc23)CC[C@H]1Oc1cccc(C(F)(F)F)c1 (relative stereo) [Example 396, trans-8-(3-Isopropoxy-4-(3-(trifluoromethyl)phenoxy)piperidin-1-yl)-5-methyl-6-oxo-5,6-dihydro-1,5-naphthyridine-2-carbonitrile] | 38 µM | 3.6 µM | 14 µM |  |  |  | 
C[C@@H]1CN(c2cc(=O)n(C)c3ccc(C#N)nc23)[C@@H](C)CC1N(C)C(=O)c1ccc(F)cc1 (single isomer, unassigned) [Example 283A] | 26 µM | 14 µM |  |  |  |  | 
CCO[C@H]1CN(c2cc(=O)n(C)c3ccc(C#N)nc23)CC[C@@H]1OCc1cccc(C(F)(F)F)c1 [Example 381, 8-((3S,4S)-3-ethoxy-4-((3-(trifluoromethyl)benzyl)oxy)piperidin-1-yl)-5-methyl-6-oxo-5,6-dihydro-1,5-naphthyridine-2-carbonitrile] | 0.31 µM | 7.4 µM |  |  | 0.24 µM |  | 
CCO[C@H]1CN(c2cc(=O)n(C)c3ccc(C#N)nc23)CC[C@@H]1Oc1cnc(OC(C)C)cn1 [Example 378, 8-((3S,4S)-3-ethoxy-4-((5-isopropoxypyrazin-2-yl)oxy)piperidin-1-yl)-5-methyl-6-oxo-5,6-dihydro-1,5-naphthyridine-2-carbonitrile] | 7.7 µM | 5.2 µM | 10 µM |  |  |  | 
CCO[C@H]1CN(c2nc(=O)n(C)c3ccc(C#N)nc23)CC[C@@H]1Oc1ccc(C(F)(F)F)cc1 [Example 404, 4-((3S,4S)-3-ethoxy-4-(4-(trifluoromethyl)phenoxy)piperidin-1-yl)-1-methyl-2-oxo-1,2-dihydropyrido[3,2-d]pyrimidine-6-carbonitrile] | 5.6 µM | 1.2 µM |  |  |  |  | 1.3 µM
Cn1c(=O)cc(N2CC[C@@H](Oc3cccc(C(F)(F)F)c3)[C@H](OCC(F)(F)F)C2)c2nc(C#N)ccc21 [Example 393, 5-methyl-6-oxo-8-((3R,4R)-3-(2,2,2-trifluoroethoxy)-4-(3-(trifluoromethyl)phenoxy)piperidin-1-yl)-5,6-dihydro-1,5-naphthyridine-2-carbonitrile] | 1.1 µM | 0.38 µM |  | 0.68 µM |  |  | 
CCO[C@H]1CN(c2nc(=O)n(C)c3ccc(C#N)nc23)CC[C@@H]1Oc1ccccc1 (relative stereo) [Example 403, trans-4-(3-Ethoxy-4-phenoxypiperidin-1-yl)-1-methyl-2-oxo-1,2-dihydropyrido[3,2-d] pyrimidine-6-carbonitrile] | 19 µM | 5.3 µM |  | 11 µM |  |  | 
Cn1c(=O)cc(N2CC[C@@H](Oc3cccc(C(F)(F)F)c3)[C@H](OCC3CC3)C2)c2nc(C#N)ccc21 [Example 387, 8-((3R,4R)-3-(cyclopropylmethoxy)-4-(3-(trifluoromethyl)phenoxy)piperidin-1-yl)-5-methyl-6-oxo-5,6-dihydro-1,5-naphthyridine-2-carbonitrile] | 2.1 µM | 0.097 µM | 0.65 µM |  |  |  | 
CC(C)O[C@@H]1CN(c2cc(=O)n(C)c3ccc(C#N)nc23)CC[C@H]1Oc1cccc(C(F)(F)F)c1 (relative stereo) [Example 395, trans-8-(3-Isopropoxy-4-(3-(trifluoromethyl)phenoxy)piperidin-1-yl)-5-methyl-6-oxo-5,6-dihydro-1,5-naphthyridine-2-carbonitrile] | 0.32 µM | 0.069 µM | 0.91 µM |  |  |  | 
CN(C)CCO[C@@H]1CN(c2cc(=O)n(C)c3ccc(C#N)nc23)CC[C@H]1Oc1cccc(C(F)(F)F)c1 [Example 385, 8-((3R,4R)-3-(2-(dimethylamino)ethoxy)-4-(3-(trifluoromethyl)phenoxy)piperidin-1-yl)-5-methyl-6-oxo-5,6-dihydro-1,5-naphthyridine-2-carbonitrile] | 100 µM | 130 µM |  |  |  |  | 
